# Values of other authors as cited in US10022338B2, “Honey bee mite disruptive compounds and methods of application” (SIMON FRASER UNIVERSITY, priority 2014, dated 2018).
# System: olfactory sensory organ on the Varroa foreleg
# Settings: separate study
smiles,measurement,setting,value
"CCN(CC)C(=O)c1cccc(C)c1 [DEET, 3-methyl-N,N-diethylbenzamide]",long-term inhibition of Varroa's response to bee headspace,high dose,long-term inhibit
same,short-term inhibition of Varroa's response to bee headspace,,not significant
